Measurements published in patent US20140349955A1, “USE OF FLUORINE-CONTAINING WATER SOLUBLE PLATINUM COMPLEX IN PREPARING DRUGS FOR PREVENTION AND TREATMENT OF CANCERS” (GUDUI BIOPHARMA TECHNOLOGY INC., priority 2011, published 2014).

Tests used:
Type in all cases: cell-based, human
Conditions in all cases: 96 h
DU145 = experiment: Synergistic cytotoxicity test (MTS), DU145
Method: (§1) Containing 10% bovine fetal serum, 1 mM of sodium pyruvate, 2 mM of L-glutamine, 50 U/mL of penicillin, 50 μg/ mL of streptomycin.
(§2) Human tumor cells: du145-human prostate cancer; MCF-7-human breast cancer; SK0V3-human ovarian carcinoma, HT-29-human colon cancer; A549-human non-small cell lung cancer (adenocarcinoma), H460-human non-small cell lung cancer (large cell carcinoma), and animal tumor cells: L1210-mice leukemia cells used in the following activity test experiments were all purchased from Shanghai An Yan Commercial Trade Co., Ltd.
(§3) MTS test method was used in cytotoxicity assay. The tumor cells of logarithmic phase were collected, and then the concentration of cell suspension was adjusted, 100 μL of the cell suspension was added to each well, the cells were placed at 1000-10000 cells/well (edge well filled with sterile PBS). Cells were incubated at 37° C. with 5% CO2 to make cell monolayer overspread the bottom of each well (96-well flat-bottomed microplate). 100 μL of certain concentration solution of a mixture of the fluorine-containing water-soluble platinum complex with other antitumor agents was added to each well. Each condition was measured in five replicates. The microplate was incubated at 37° C. with 5% CO2 for 96 h and checked with inverted microscope. MTS working reagent: To 2 mL of MTS (2 mg/mL, prepared by DPBS) was added 100 μL of PMS (1 mg/mL, prepared by DPBS). The cell culture medium was discarded after centrifugation, the cell culture plate was carefully washed 2-3 times with PBS. Before detecting the absorbance value (OD), to each sample containing well was added 100 μL of cell culture medium, then 20 μL of MTS working reagent was added. After incubation at 37° C. with 5% CO2 for 2 h, the OD (optical density) value was detected at 490 nm.
(§4) Each of above experiment was repeated five times, and the cell viability was calculated according to the mean OD values.
(§5) Cell Viability (%)=(treated group OD value/control group OD value)×100
(§6) Control group: the conditions are the same as the above without adding the tested drug mixture (100 μL of culture medium was added in stead), and finally the absorbance was measured at 490 nm to obtain the OD value of the tumor cells.
(§7) Drug Group-1: only the fluorine-containing water-soluble platinum complex was added under the above conditions to obtain cell viability of tumor cells.
(§8) Drug Group-2: only the other chemotherapeutic drug (active ingredient) was added under the above conditions to obtain cell viability of tumor cells.
(§9) Drug Combination Group: the fluorine-containing water-soluble platinum complex and other chemotherapeutic drugs were added simultaneously under the above conditions to obtain cell viability of tumor cell. (2) Evaluation Method:
(§10) When the fluorine-containing water-soluble platinum complexes used in combination with other chemotherapy drugs, the inhibition effect on cancer cell proliferation is enhanced or synergistic, and the effect was calculated using the following formula:
(§11) Combination Effect (%)={[(A1-X)+(A2-X)]/(A1-A2)|}×100
(§12) wherein, A1 is the cell viability of drug group-1, A2 is the cell viability of drug group-2, X is the cell viability of drug combination group, (A1-A2)| is the absolute value of the cell viability difference between the two groups.
(§13) Calculated according to the above formula, when the results of [Combination Effect (%)]>+100%, that means the effect of inhibition on cell proliferation is enhanced or synergistic (3) Experimental Result: […]

H460 = experiment: Synergistic cytotoxicity test (MTS), H460
Method: as §1, §2, §3, §4, §5, §6, §7, §8, §9, §10, §11, §12, §13

HT29 = experiment: Synergistic cytotoxicity test (MTS), HT29
Method: as §1, §2, §3, §4, §5, §6, §7, §8, §9, §10, §11, §12, §13

SK0V3 = experiment: Synergistic cytotoxicity test (MTS), SKOV3
Method: as §1, §2, §3, §4, §5, §6, §7, §8, §9, §10, §11, §12, §13

A549 = experiment: Synergistic cytotoxicity test (MTS), A549
Method: as §1, §2, §3, §4, §5, §6, §7, §8, §9, §10, §11, §12, §13

MCF7 = experiment: Synergistic cytotoxicity test (MTS), MCF7
Method: as §1, §2, §3, §4, §5, §6, §7, §8, §9, §10, §11, §12, §13

[1] = other chemotherapy drug (at its listed dosage) combined with Complex 2 (dosage: 1 μM)
[2] = other chemotherapy drug (at its listed dosage) combined with Complex 3 (dosage: 1 μM)
[3] = other chemotherapy drug (at its listed dosage) combined with Complex 5 (dosage: 1 μM)
[4] = other chemotherapy drug (at its listed dosage) combined with Complex 6 (dosage: 1 μM)
[5] = other chemotherapy drug (at its listed dosage) combined with Complex 2 (dosage: 1 μM), SLOV3
[6] = other chemotherapy drug (at its listed dosage) combined with Complex 3 (dosage: 1 μM), SlOV3
[7] = other chemotherapy drug (at its listed dosage) combined with Complex 5 (dosage: 1 μM), SLOV3
[8] = other chemotherapy drug (at its listed dosage) combined with Complex 6 (dosage: 1 μM), SLOV3

CCc1c2c(nc3ccc(OC(=O)N4CCC(N5CCCCC5)CC4)cc13)-c1cc3c(c(=O)n1C2)COC(=O)[C@]3(O)CC [Irinotecan]
the effect of drug combination (Combination Effect) (DU145; [1]): ○ (○ represents: 100% < the effect of drug combination < 300%)
the effect of drug combination (Combination Effect) (DU145; [2]): ○ (○ represents: 100% < the effect of drug combination < 300%)
the effect of drug combination (Combination Effect) (DU145; [3]): ○ (○ represents: 100% < the effect of drug combination < 300%)
the effect of drug combination (Combination Effect) (DU145; [4]): ○ (○ represents: 100% < the effect of drug combination < 300%)
the effect of drug combination (Combination Effect) (H460; [3]): ⊚ (⊚ represents the effect of drug combination > 300%)
the effect of drug combination (Combination Effect) (H460; [4]): ⊚ (⊚ represents the effect of drug combination > 300%)
the effect of drug combination (Combination Effect) (HT29; [1]): ⊚ (⊚ represents the effect of drug combination > 300%)
the effect of drug combination (Combination Effect) (HT29; [2]): ⊚ (⊚ represents the effect of drug combination > 300%)
the effect of drug combination (Combination Effect) (HT29; [3]): ⊚ (⊚ represents the effect of drug combination > 300%)
the effect of drug combination (Combination Effect) (HT29; [4]): ⊚ (⊚ represents the effect of drug combination > 300%)
the effect of drug combination (Combination Effect) (SK0V3; [5]): ⊚ (⊚ represents the effect of drug combination > 300%)
the effect of drug combination (Combination Effect) (SK0V3; [6]): ⊚ (⊚ represents the effect of drug combination > 300%)
the effect of drug combination (Combination Effect) (SK0V3; [7]): ⊚ (⊚ represents the effect of drug combination > 300%)
the effect of drug combination (Combination Effect) (SK0V3; [8]): ⊚ (⊚ represents the effect of drug combination > 300%)
the effect of drug combination (Combination Effect) (A549; [1]): ⊚ (⊚ represents the effect of drug combination > 300%)
the effect of drug combination (Combination Effect) (A549; [2]): ⊚ (⊚ represents the effect of drug combination > 300%)
the effect of drug combination (Combination Effect) (MCF7; [1]): ○ (○ represents: 100% < the effect of drug combination < 300%)
the effect of drug combination (Combination Effect) (MCF7; [2]): ○ (○ represents: 100% < the effect of drug combination < 300%)
the effect of drug combination (Combination Effect) (MCF7; [3]): ○ (○ represents: 100% < the effect of drug combination < 300%)
the effect of drug combination (Combination Effect) (MCF7; [4]): ○ (○ represents: 100% < the effect of drug combination < 300%)

Nc1ccn([C@@H]2O[C@H](CO)[C@@H](O)C2(F)F)c(=O)n1 [Gemcitabine]
the effect of drug combination (Combination Effect) (DU145; [1]): ⊚ (⊚ represents the effect of drug combination > 300%)
the effect of drug combination (Combination Effect) (DU145; [2]): ○ (○ represents: 100% < the effect of drug combination < 300%)
the effect of drug combination (Combination Effect) (DU145; [3]): ○ (○ represents: 100% < the effect of drug combination < 300%)
the effect of drug combination (Combination Effect) (DU145; [4]): ○ (○ represents: 100% < the effect of drug combination < 300%)
the effect of drug combination (Combination Effect) (H460; [3]): ⊚ (⊚ represents the effect of drug combination > 300%)
the effect of drug combination (Combination Effect) (H460; [4]): ⊚ (⊚ represents the effect of drug combination > 300%)
the effect of drug combination (Combination Effect) (HT29; [1]): ⊚ (⊚ represents the effect of drug combination > 300%)
the effect of drug combination (Combination Effect) (HT29; [2]): ⊚ (⊚ represents the effect of drug combination > 300%)
the effect of drug combination (Combination Effect) (HT29; [3]): ⊚ (⊚ represents the effect of drug combination > 300%)
the effect of drug combination (Combination Effect) (HT29; [4]): ⊚ (⊚ represents the effect of drug combination > 300%)
the effect of drug combination (Combination Effect) (SK0V3; [5]): ⊚ (⊚ represents the effect of drug combination > 300%)
the effect of drug combination (Combination Effect) (SK0V3; [6]): ○ (○ represents: 100% < the effect of drug combination < 300%)
the effect of drug combination (Combination Effect) (SK0V3; [7]): ○ (○ represents: 100% < the effect of drug combination < 300%)
the effect of drug combination (Combination Effect) (SK0V3; [8]): ○ (○ represents: 100% < the effect of drug combination < 300%)
the effect of drug combination (Combination Effect) (A549; [1]): ⊚ (⊚ represents the effect of drug combination > 300%)
the effect of drug combination (Combination Effect) (A549; [2]): ⊚ (⊚ represents the effect of drug combination > 300%)
the effect of drug combination (Combination Effect) (MCF7; [1]): ⊚ (⊚ represents the effect of drug combination > 300%)
the effect of drug combination (Combination Effect) (MCF7; [2]): ⊚ (⊚ represents the effect of drug combination > 300%)
the effect of drug combination (Combination Effect) (MCF7; [3]): ⊚ (⊚ represents the effect of drug combination > 300%)
the effect of drug combination (Combination Effect) (MCF7; [4]): ⊚ (⊚ represents the effect of drug combination > 300%)
